Assay results as given in patent publication US8946265B2, “Process for the preparation of lenalidomide” (Generics [UK] Limited, priority 2009, dated 2015).
Like-named read-outs stand apart in the source and are kept apart here.

What was measured:
[1] = Thermodynamic stability and interconversion of polymorphs; type: physicochemical
[2] = Hygroscopicity of the crystalline form; type: physicochemical; details: solid crystalline form

polymorphic conversion in aqueous solvent systems ([1]; aqueous solvent systems) | thermodynamic stability relative to other polymorphs ([1]; listed as form A) | hygroscopicity [2] | polymorphic conversion under heating ([1]; conditions of heating) | SMILES | thermodynamic stability relative to other polymorphs [1]
convert to form B | most thermodynamically stable form | non-hygroscopic |  | Nc1cccc2c1CN(C1CCC(=O)NC1=O)C2=O (centres unmarked) [lenalidomide crystalline form A, 3-(4-amino-1-oxo-1,3-dihydro-isoindol-2-yl)-piperidine-2,6-dione] | most thermodynamically stable anhydrous polymorph
 |  |  | convert to form A | Nc1cccc2c1CN(C1CCC(=O)NC1=O)C2=O (centres unmarked) [form B, 3-(4-amino-1-oxo-1,3-dihydro-isoindol-2-yl)-piperidine-2,6-dione] | 
